From US20200108034A1, “USE OF CITRULLINE AND GLUTATHIONE TO INCREASE MUSCLE MASS” (KYOWA HAKKO BIO CO., LTD., priority 2017, published 2020)

Key:
Type in all cases: in vivo, human
[1] = Change in muscle mass after 8-week resistance training with supplementation
Experimental: (§1) Seventy-five resistance-trained (e.g., regular, resistance training thrice weekly for at least one year prior to the study) males between the ages of 18-35 and having a BMI between 18.5 and 30 kg/m^2 were divided into 3 groups of 25, wherein each group received one of the following supplements: (A) 2 g/day L-citrulline (CIT) and 200 mg/day glutathione (GSH), (B) 2 g/day L-citrulline malate only, or (C) 2.52 g/day of cellulose placebo. Participants were matched by total body mass and then randomly assigned a supplementation protocol in a double-blind fashion. Participants took their supplements one hour prior to their workout on exercise days. On non-exercise days, participants took their supplements in the morning with breakfast.
Body composition was measured at days 0, 29, and 57 during the study. Total body mass (kg) was determined on a standard dual beam balance scale (Detecto, Bridgeview, Ill.). Percent body fat, fat mass, and fat-free mass were determined using DEXA (Discovery Series W, commercially available from Hologic, Waltham, Mass.). […] Total body water was determined with bioelectrical impedance spectroscopy (Tanita Inc., Arlington Heights, Ill.) using a low energy, high frequency current (500 micro amps at a frequency of 50 kHz). […]

[2] = Serum general clinical chemistry markers, day 0 and day 57; conditions: mean ± SEM, N = 25
Experimental: as §1
(§2) Venous blood samples were obtained from the antecubital vein using a standard VACUTAINER™ apparatus into one tube for serum separation and one for whole blood. The serum separation tubes were allowed to stand at room temperature for 15 minutes and then centrifuged for 10 minutes, and serum was removed and placed into a microfuge tube. Blood samples were obtained prior to the first dose of supplement and prior to beginning the resistance training program (day 0) and after eight weeks of supplementation and resistance training (day 57).
(§3) Serum samples were assayed for the following general clinical chemistry markers: glucose, total protein, blood urea nitrogen, creatinine, BUN/creatinine ratio, AST, ALT, albumin, globulin, total bilirubin, alkaline phosphatase. Whole blood samples were assayed for standard cell blood counts with percentage differentials, such as hemoglobin, red blood cell counts, white blood cell counts, neutrophils, lymphocytes, monocytes, eosinophils, and basophils.

[3] = Body composition (body mass, DEXA fat mass, bioimpedance total body water) at days 0, 29, 57; conditions: mean ± SEM, N = 25; for Fat Mass: DEXA; for Total Body Water: bioelectrical impedance
Experimental: as §1
Body composition was measured at days 0, 29, and 57 during the study. Total body mass (kg) was determined on a standard dual beam balance scale (Detecto, Bridgeview, Ill.). Percent body fat, fat mass, and fat-free mass were determined using DEXA (Discovery Series W, commercially available from Hologic, Waltham, Mass.). Quality control calibration procedures were performed on a spine phantom (X-CALIBER Model DPA/QDR-1 anthropometric spine phantom, commercially available from Hologic, Waltham, Mass.) and a density step calibration phantom prior to each testing session. Total body water was determined with bioelectrical impedance spectroscopy (Tanita Inc., Arlington Heights, Ill.) using a low energy, high frequency current (500 micro amps at a frequency of 50 kHz).
Participants engaged in a supervised, periodized 4 day per week resistance-training program split into two upper and two lower extremity workouts per week for a total of 8 weeks. Prior to the workout, participants performed a standardized series of stretching exercises. The participants then performed an upper-body resistance-training program consisting of bench press, lat pull, shoulder press, seated row, shoulder shrugs, chest fly, biceps curl, triceps press down, and abdominal curls, twice per week, and a lower-body program consisting of leg press, back extension, step ups, leg curls, leg extension, heel raises, and abdominal crunches, also performed twice per week. Participants performed 3 sets of 10 repetitions with as much weight as they could lift per set (typically 70 to 80% of 1-RM). Rest periods between exercises and sets lasted no longer than 2 minutes.

[4] = Whole blood cell counts with differentials, day 0 and day 57; conditions: mean ± SEM; for Absolute basophils / Absolute eosinophils / Absolute lymphocytes / Absolute monocytes / Absolute neutrophils / Hb / Platelet / RBC / WBC: N = 25; for Red cell distribution width: N = 25, in % (unit assumed)
Experimental: as §1, §2, §3

NC(=O)NCCC[C@H](N)C(=O)O.O=C(O)CC(O)C(=O)O [CIT-malate, L-citrulline malate]
participants who displayed increases in muscle mass at both 4 and 8 weeks ([1]; FIG. 2, 25 per group): 36% | change in muscle mass ([1]; at 4 and 8 weeks, vs placebo, heavy resistance training, FIGS. 1A and 1B): increase in muscle mass compared to persons receiving only placebo | ALP ([2]; 8 weeks): 73.0 ± 4.5 IU/L | ALT ([2]; 8 weeks): 22.9 ± 1.8 IU/L | AST ([2]; 8 weeks): 21.3 ± 1.3 IU/L | Albumin ([2]; 8 weeks): 4.7 ± 0.05 g/dL | Albumin/Globulin ([2]; 8 weeks): 1.9 ± 0.06 | Bilirubin ([2]; 8 weeks): 0.6 ± 0.05 mg/dL | Creatinine ([2]; 8 weeks): 1.1 ± 0.04 mg/dL | Glucose ([2]; 8 weeks): 101.8 ± 3.9 mg/dL | Total protein ([2]; 8 weeks): 7.2 ± 0.1 g/dL | Urea nitrogen ([2]; 8 weeks): 16.9 ± 0.7 mg/dL | ALP ([2]; Baseline): 74.9 ± 4.5 IU/L | ALT ([2]; Baseline): 24.9 ± 2.4 IU/L | AST ([2]; Baseline): 23.8 ± 1.5 IU/L | Albumin ([2]; Baseline): 4.9 ± 0.05 g/dL | Albumin/Globulin ([2]; Baseline): 2.0 ± 0.07 | Bilirubin ([2]; Baseline): 0.7 ± 0.08 mg/dL | Creatinine ([2]; Baseline): 1.1 ± 0.03 mg/dL | Glucose ([2]; Baseline): 97.5 ± 3.4 mg/dL | Total protein ([2]; Baseline): 7.4 ± 0.1 g/dL | Urea nitrogen ([2]; Baseline): 16.8 ± 0.8 mg/dL | Fat Mass ([3]; Baseline): 11.2 ± 1.04 kg | Total Body Water ([3]; Baseline): 47.9 ± 1.14 kg | Body Mass ([3]; Baseline): 79.2 ± 2.50 kg | Fat Mass ([3]; supplementation week 4): 11.5 ± 0.92 kg | Total Body Water ([3]; supplementation week 4): 48.1 ± 1.16 kg | Body Mass ([3]; supplementation week 4): 79.5 ± 2.52 kg | Fat Mass ([3]; supplementation week 8): 11.9 ± 0.96 kg | Total Body Water ([3]; supplementation week 8): 48.4 ± 1.14 kg | Body Mass ([3]; supplementation week 8): 80.1 ± 2.42 kg | Absolute basophils ([4]; 8 weeks): 26.8 ± 3.2 µL⁻¹ | Absolute eosinophils ([4]; 8 weeks): 312.8 ± 79.5 µL⁻¹ | Absolute lymphocytes ([4]; 8 weeks): 1902.7 ± 85.5 µL⁻¹ | Absolute monocytes ([4]; 8 weeks): 370.5 ± 30.7 µL⁻¹ | Absolute neutrophils ([4]; 8 weeks): 3292.4 ± 318.9 µL⁻¹ | Hb ([4]; 8 weeks): 15.0 ± 0.1 g/dL | Platelet ([4]; 8 weeks): 212.4 ± 8.0 ×10^3/μL | RBC ([4]; 8 weeks): 5.1 ± 0.06 ×10^6/μL | WBC ([4]; 8 weeks): 5.7 ± 0.3 ×10^3/μL | Red cell distribution width ([4]; 8 weeks): 13.5 ± 0.4 | Absolute basophils ([4]; Baseline): 31.2 ± 3.3 µL⁻¹ | Absolute eosinophils ([4]; Baseline): 130.5 ± 16.6 µL⁻¹ | Absolute lymphocytes ([4]; Baseline): 2032.1 ± 131.4 µL⁻¹ | Absolute monocytes ([4]; Baseline): 371.8 ± 25.6 µL⁻¹ | Absolute neutrophils ([4]; Baseline): 3652.2 ± 306.1 µL⁻¹ | Hb ([4]; Baseline): 15.1 ± 0.2 g/dL | Platelet ([4]; Baseline): 218.2 ± 10.9 ×10^3/μL | RBC ([4]; Baseline): 5.1 ± 0.07 ×10^6/μL | WBC ([4]; Baseline): 6.2 ± 0.3 ×10^3/μL | Red cell distribution width ([4]; Baseline): 13.3 ± 0.1
